As a reminder, the IC50 is the concentration at which inhibition is half-maximal. The inhibition is the relative decrease from the control value, in per cent.

Structures are written as SMILES.

The assay addresses N-type calcium channel (α1B (Cav2.2), β3 and α2δ subunits) (Homo sapiens, UniProt Q00975). In words: Functional Assay: Antagonism of N-Type Calcium Channel (FDSS calcium mobilization, KCl depolarization). The class given is cell-based. The note with it: for IC50: HEK cell line, 50 mM KCl depolarization, six-point concentration-response, read-out: FDSS IC50. How it is done:
A stable cell line (HEK parent) co-expressing the α1B (Cav2.2), β3 and α2δ subunits of the N-type calcium channel subunits was used. These cells were routinely grown as monolayers in low glucose-containing Dulbecco's Modified Eagle Medium supplemented with 10% FBS, 2 mM L-glutamine, 100 I.U./mL penicillin, 100 μg/mL streptomycin, 400 μg/mL G418 and 200 μg/mL Zeocin (split ratio=1:5). Cells were maintained in 5% CO2 at 37° C. Compounds of Formula (I) were prepared as 10 mM stocks in DMSO from neat compound, if available. Otherwise, the 5 or 10 mM DMSO stock solutions provided in-house were used.
Calcium mobilization responses to KCl depolarization were evaluated by measuring the intensity of calcium-mediated fluorescent signal in the presence of BD Calcium Assay Dye (BD Biosciences, Franklin Lakes, N.J., U.S.A.), utilizing a Functional Drug Screening System (FDSS) by Hamamatsu Corporation (Bridgewater, N.J. U.S.A.).
Twenty-four hr prior to assay, cells were seeded in clear-base poly-D-lysine-coated 384-well plates (BD Biosciences) at a density of 5,000 cells per well in culture medium and grown overnight in 5% CO2 at 37° C. On the day of assay, growth media were removed, and cells were loaded with BD calcium assay dye (BD Biosciences) for 35 min at 37° C. under 5% CO2 and then for 25 min at room temp. Utilizing the FDSS, cells were exposed to representative compounds of Formula (I) at varying concentrations, and intracellular calcium was measured for 5 min prior to the addition of 50 mM KCl for an additional 3 min of measurement.
Calculations and Formulas
IC50 values for representative compounds of Formula (I) were determined from six-point concentration-response experiments and represent the concentration of said compound required to inhibit 50% of the maximal response. Maximal fluorescence intensity (FI) achieved upon addition of 50 mM KCl was exported from the FDSS software and further analyzed using GraphPad Prism 3.02 (Graph Pad Software Inc., San Diego, Calif., U.S.A.). Data were normalized to the maximum average counts from quadruplicate wells for each condition in the presence of 50 mM KCl and to the minimum average counts in the presence of buffer. Theoretical curves were generated using nonlinear regression curve-fitting analysis of either sigmoidal concentration-response or sigmoidal concentration-response (variable slope), and the IC50 values with the best-fit curve determined by GraphPad Prism were reported.
(In general: Calcium assays in cells follow changes in intracellular calcium, usually with a dye or a luminescent sensor.)

Chain of N-type calcium channel (α1B (Cav2.2), β3 and α2δ subunits) (Q00975 whole entry): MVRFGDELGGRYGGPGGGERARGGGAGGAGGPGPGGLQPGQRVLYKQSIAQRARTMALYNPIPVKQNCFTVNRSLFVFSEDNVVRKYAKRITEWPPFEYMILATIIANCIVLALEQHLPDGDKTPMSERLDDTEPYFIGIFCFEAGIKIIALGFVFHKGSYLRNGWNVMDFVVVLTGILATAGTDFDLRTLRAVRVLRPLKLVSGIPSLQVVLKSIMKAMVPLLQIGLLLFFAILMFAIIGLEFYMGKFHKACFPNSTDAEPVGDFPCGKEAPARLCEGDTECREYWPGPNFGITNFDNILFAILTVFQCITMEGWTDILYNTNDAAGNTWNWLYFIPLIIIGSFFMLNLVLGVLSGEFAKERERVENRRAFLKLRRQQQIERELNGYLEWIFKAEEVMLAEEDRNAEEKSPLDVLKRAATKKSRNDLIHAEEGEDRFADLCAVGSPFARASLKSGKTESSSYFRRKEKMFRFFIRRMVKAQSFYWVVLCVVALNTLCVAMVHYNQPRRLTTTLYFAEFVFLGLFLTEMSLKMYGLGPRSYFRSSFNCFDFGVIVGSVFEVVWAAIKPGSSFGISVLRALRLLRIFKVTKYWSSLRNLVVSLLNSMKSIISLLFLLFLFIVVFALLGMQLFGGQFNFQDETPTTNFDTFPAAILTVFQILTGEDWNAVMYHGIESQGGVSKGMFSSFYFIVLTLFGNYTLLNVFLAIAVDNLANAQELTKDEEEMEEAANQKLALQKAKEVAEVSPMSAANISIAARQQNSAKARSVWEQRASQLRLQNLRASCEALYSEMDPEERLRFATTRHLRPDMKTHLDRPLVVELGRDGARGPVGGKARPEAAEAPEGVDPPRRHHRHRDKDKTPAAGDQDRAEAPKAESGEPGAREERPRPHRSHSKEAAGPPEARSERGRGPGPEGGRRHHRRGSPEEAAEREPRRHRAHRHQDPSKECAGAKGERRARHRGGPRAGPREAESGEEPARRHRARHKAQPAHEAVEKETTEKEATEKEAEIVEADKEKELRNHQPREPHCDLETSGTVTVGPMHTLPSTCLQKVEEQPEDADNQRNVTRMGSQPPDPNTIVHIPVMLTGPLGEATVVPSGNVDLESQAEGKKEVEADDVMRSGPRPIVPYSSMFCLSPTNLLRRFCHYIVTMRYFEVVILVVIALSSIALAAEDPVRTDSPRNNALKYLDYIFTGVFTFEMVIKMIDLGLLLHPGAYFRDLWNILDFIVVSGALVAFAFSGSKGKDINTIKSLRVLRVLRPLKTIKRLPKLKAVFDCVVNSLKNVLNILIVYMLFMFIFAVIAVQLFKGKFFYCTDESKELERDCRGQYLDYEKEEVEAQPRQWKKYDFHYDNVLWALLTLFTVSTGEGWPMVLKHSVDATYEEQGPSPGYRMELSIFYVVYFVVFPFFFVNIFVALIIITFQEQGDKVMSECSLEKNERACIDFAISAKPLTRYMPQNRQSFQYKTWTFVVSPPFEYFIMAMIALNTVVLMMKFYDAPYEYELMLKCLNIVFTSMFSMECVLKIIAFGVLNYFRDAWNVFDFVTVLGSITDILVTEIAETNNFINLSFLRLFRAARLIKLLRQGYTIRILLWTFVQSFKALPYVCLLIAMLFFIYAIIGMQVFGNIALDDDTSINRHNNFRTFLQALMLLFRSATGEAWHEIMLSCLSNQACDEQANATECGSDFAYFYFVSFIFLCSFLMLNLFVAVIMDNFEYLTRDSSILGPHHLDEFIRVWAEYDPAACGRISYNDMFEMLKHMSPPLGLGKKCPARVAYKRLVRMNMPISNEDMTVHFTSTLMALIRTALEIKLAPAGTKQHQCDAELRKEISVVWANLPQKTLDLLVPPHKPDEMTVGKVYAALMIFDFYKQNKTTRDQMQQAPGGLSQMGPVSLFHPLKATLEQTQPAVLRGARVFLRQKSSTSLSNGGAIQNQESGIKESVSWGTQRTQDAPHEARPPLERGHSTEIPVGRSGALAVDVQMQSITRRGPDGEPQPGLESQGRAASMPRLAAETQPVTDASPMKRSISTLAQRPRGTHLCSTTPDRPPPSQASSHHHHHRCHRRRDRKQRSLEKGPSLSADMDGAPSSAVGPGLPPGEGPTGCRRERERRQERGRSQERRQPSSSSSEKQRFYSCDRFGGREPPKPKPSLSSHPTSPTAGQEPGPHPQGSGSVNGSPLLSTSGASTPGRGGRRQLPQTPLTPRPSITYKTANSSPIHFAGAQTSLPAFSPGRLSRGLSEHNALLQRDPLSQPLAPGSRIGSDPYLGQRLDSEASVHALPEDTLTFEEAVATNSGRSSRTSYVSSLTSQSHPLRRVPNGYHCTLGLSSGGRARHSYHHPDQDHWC
Chain of N-type calcium channel (α1B (Cav2.2), β3 and α2δ subunits) (P54284 whole entry partner): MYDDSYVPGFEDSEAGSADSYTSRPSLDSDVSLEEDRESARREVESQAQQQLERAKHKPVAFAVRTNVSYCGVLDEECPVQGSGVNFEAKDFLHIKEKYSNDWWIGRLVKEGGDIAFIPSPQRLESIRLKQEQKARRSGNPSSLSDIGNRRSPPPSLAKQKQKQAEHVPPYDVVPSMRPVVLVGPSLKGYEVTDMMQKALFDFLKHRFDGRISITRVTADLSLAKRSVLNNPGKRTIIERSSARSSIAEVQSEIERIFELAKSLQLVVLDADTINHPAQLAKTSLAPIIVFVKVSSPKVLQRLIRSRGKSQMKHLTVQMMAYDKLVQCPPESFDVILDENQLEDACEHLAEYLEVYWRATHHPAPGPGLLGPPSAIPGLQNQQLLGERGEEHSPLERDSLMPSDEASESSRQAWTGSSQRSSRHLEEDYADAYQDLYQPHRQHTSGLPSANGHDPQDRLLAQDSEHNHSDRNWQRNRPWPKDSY
Chain of N-type calcium channel (α1B (Cav2.2), β3 and α2δ subunits) (P54289 25-946 partner limits assumed): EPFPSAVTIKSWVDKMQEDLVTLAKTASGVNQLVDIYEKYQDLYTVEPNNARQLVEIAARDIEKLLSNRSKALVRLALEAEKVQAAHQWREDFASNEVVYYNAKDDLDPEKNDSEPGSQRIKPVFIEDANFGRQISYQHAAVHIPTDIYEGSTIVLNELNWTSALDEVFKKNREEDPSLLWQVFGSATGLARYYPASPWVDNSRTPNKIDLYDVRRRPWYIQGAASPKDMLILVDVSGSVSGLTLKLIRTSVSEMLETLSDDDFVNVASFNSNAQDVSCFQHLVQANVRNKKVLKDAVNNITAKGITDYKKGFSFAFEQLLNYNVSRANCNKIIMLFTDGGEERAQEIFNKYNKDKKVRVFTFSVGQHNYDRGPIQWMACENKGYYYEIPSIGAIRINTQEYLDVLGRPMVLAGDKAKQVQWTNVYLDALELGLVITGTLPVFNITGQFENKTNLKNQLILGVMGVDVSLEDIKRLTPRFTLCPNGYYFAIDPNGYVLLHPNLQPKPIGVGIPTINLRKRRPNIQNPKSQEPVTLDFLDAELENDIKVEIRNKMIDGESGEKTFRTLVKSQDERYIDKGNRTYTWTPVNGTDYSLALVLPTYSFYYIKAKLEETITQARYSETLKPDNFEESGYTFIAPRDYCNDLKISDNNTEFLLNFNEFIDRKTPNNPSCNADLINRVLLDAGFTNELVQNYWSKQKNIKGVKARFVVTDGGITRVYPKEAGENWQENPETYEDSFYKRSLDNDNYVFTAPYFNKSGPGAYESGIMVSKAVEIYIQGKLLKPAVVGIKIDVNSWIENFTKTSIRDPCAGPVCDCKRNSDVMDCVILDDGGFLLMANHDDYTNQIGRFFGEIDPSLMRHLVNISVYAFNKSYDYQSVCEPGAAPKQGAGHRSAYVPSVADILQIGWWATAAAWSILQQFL
Chain of N-type calcium channel (α1B (Cav2.2), β3 and α2δ subunits) (P54289 947-1103 partner limits assumed): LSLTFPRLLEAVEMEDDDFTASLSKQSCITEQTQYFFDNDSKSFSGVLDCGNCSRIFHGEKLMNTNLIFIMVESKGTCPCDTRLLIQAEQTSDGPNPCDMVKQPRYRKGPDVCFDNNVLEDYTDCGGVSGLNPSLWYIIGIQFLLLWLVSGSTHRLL

Take `CCc1ccccc1-n1nc2c(c1-c1ccc(Cl)cc1)CC(/C=N\C(=O)OC(C)(C)C)C2` (racemic) [Compound 15, tert-butyl{[3-(4-chlorophenyl)-2-(2-ethylphenyl)-2,4,5,6-tetrahydrocyclopenta[c]pyrazol-5-yl]methylidene}carbamate]: the concentration for half-maximal inhibition (IC50) turned out to be 300 nM. Same read-out and setting: next, `COc1ccccc1-n1nc2c(c1-c1ccc(Cl)cc1)CC(CCO)C2` (stereo not drawn) [Compound 1, 2-[3-(4-chlorophenyl)-2-(2-methoxyphenyl)-2,4,5,6-tetrahydrocyclopenta[c]pyrazol-5-yl]ethanol]: 200 nM. Take `C=CCC1Cc2nn(-c3ccccc3OC)c(-c3ccc(Cl)cc3)c2C1` (stereo not drawn) [Compound 4, 3-(4-chlorophenyl)-2-(2-methoxyphenyl)-5-prop-2-en-1-yl-2,4,5,6-tetrahydrocyclopenta[c]pyrazole]: the inhibition at 1 µM came out at 81%.

Take `COc1ccccc1-n1nc2c(c1-c1ccc(Cl)cc1)CC(C(N)=O)C2` (stereo not drawn) [Compound 6, 3-(4-chlorophenyl)-2-(2-methoxyphenyl)-2,4,5,6-tetrahydrocyclopenta[c]pyrazole-5-carboxamide]: the inhibition at 0.33 µM amounted to 75% and the 50% inhibitory concentration (IC50) came to 490 nM.

`COc1ccccc1-n1nc2c(c1-c1ccccc1)CC(CNS(C)(=O)=O)C2` (stereo not drawn) [Compound 7, N-{[2-(2-methoxyphenyl)-3-phenyl-2,4,5,6-tetrahydrocyclopenta[c]pyrazol-5-yl]methyl}methanesulfonamide]: the inhibition at 0.33 µM was found to be 68%. On to `COc1ccccc1-n1nc2c(c1-c1ccccc1)CC(C#N)C2` (stereo not drawn) [Compound 9, 2-(2-methoxyphenyl)-3-phenyl-2,4,5,6-tetrahydrocyclopenta[c]pyrazole-5-carbonitrile], for which the inhibition at 0.33 µM was 59%. Take `COc1ccccc1-n1nc2c(c1-c1ccc(Cl)cc1)CC(C#N)C2` (stereo not drawn) [Compound 10, 3-(4-chlorophenyl)-2-(2-methoxyphenyl)-2,4,5,6-tetrahydrocyclopenta[c]pyrazole-5-carbonitrile]: the inhibition at 0.33 µM came out at 83% and the concentration for half-maximal inhibition (IC50) was found to be 300 nM.

For the compound `CCOC(=O)C1Cc2nn(-c3ccccc3CC)c(-c3ccc(Cl)cc3)c2C1` (stereo not drawn) [Compound 14, ethyl 3-(4-chlorophenyl)-2-(2-ethylphenyl)-2,4,5,6-tetrahydrocyclopenta[c]pyrazole-5-carboxylate], the IC50 turned out to be 90 nM.

As to `CCc1ccccc1-n1nc2c(c1-c1ccc(Cl)cc1)CC(COC(=O)N(CC)CC)C2` (stereo not drawn) [Compound 17, [3-(4-chlorophenyl)-2-(2-ethylphenyl)-2,4,5,6-tetrahydrocyclopenta[c]pyrazol-5-yl]methyl diethylcarbamate], the IC50 is 180 nM. Same read-out and setting: the same measure for `CCc1ccccc1-n1nc2c(c1-c1ccc(Cl)cc1)CC(CNS(C)(=O)=O)C2` (stereo not drawn) [Compound 18, N-{[3-(4-chlorophenyl)-2-(2-ethylphenyl)-2,4,5,6-tetrahydrocyclopenta[c]pyrazol-5-yl]methyl}methanesulfonamide]: 200 nM. Take `CCc1ccccc1-n1nc2c(c1-c1ccc(Cl)cc1)CC(CNC(=O)C(F)(F)F)C2` (stereo not drawn) [Compound 19, N-{[3-(4-chlorophenyl)-2-(2-ethylphenyl)-2,4,5,6-tetrahydrocyclopenta[c]pyrazol-5-yl]methyl}-2,2,2-trifluoroacetamide]: the IC50 was found to be 130 nM.

As for `CC(C)(C)OC(=O)NCCC1Cc2nn(-c3ccccc3C(F)(F)F)c(-c3ccc(Cl)cc3)c2C1` (stereo not drawn) [Compound 20, tert-butyl(2-{3-(4-chlorophenyl)-2-[2-(trifluoromethyl)phenyl]-2,4,5,6-tetrahydrocyclopenta[c]pyrazol-5-yl}ethyl)carbamate], the IC50 was 260 nM. Turning to `CS(=O)(=O)NCCC1Cc2nn(-c3ccccc3C(F)(F)F)c(-c3ccc(Cl)cc3)c2C1` (stereo not drawn) [Compound 21, N-(2-{3-(4-chlorophenyl)-2-[2-(trifluoromethyl)phenyl]-2,4,5,6-tetrahydrocyclopenta[c]pyrazol-5-yl}ethyl)methanesulfonamide], the inhibition at 1 µM is 65%.

These data come from patent US8853418B2, “Cyclopentylpyrazoles as N-type calcium channel blockers” (Janssen Pharmaceutica NV, priority 2012, dated 2014).
